# Results taken from patent US9914730B2, “Azaquinazoline inhibitors of Atypical protein Kinase C” (Ignyta, Inc., priority 2012, dated 2018).
# Target: T1, full-length human PKCι (Homo sapiens, UniProt P41743)
# T1 construct: Recombinant, full-length human PKCι expressed in Sf21 insect cells is also commercially available; purchased; host or cells: Sf21 insect cells
# T1 sequence (P41743 1-596): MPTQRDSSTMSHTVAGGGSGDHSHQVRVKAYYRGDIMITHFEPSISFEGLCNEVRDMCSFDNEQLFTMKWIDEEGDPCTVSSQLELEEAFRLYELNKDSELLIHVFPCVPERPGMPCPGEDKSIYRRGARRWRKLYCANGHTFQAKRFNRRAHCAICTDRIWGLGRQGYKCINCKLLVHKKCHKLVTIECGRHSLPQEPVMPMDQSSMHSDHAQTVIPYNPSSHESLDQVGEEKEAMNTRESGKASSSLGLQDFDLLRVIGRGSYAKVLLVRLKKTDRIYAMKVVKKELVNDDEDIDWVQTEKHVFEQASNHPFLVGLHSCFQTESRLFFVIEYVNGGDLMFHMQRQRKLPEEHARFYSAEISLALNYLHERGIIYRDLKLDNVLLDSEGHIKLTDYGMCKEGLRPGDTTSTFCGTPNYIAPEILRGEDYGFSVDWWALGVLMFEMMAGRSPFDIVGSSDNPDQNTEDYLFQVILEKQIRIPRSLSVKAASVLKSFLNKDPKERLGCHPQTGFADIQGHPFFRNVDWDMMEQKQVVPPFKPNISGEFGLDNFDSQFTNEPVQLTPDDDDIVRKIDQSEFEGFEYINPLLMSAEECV
# Test: PKCι IC50 IMAP assay, full-length PKCι at 150 μM ATP
# Format: biochemical
# Settings: read-out: IC50 in IMAP assay against full length PKCi at 150 μM ATP
# Procedure, shortened: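 Phosphorylation of a 5FAM-tagged PKCε pseudopeptide-derived substrate (100 nM) by full-length recombinant human PKCι was monitored by IMAP fluorescence polarisation. ATP was held at 150 μM, five times its apparent KM, with 60 min room-temperature incubation.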
row,IC50 [nM],Compound
1,10000 to 40000,"FC(F)(F)[C@H]1CN(c2nc(-c3ccnc(Cl)c3)nc3cncc(C4CC4)c23)CCN1 [Example 660, 2-(2-Chloro-pyridin-4-yl)-5-cyclopropyl-4-((R)-3-trifluoromethyl-piperazin-1-yl)-pyrido[3,4-d]pyrimidine]"
2,1000 to 10000,"COCCN1CCN(c2nc(-c3ccnc(Nc4ccccc4)c3)nc3cncc(C4CC4)c23)CC1 [Example 661, (4-{5-Cyclopropyl-4-[4-(2-methoxy-ethyl)-piperazin-1-yl]-pyrido[3,4-d]pyrimidin-2-yl}-pyridin-2-yl)-phenyl-amine]"
3,1000 to 10000,"COCCN1CCN(c2nc(-c3ccnc(Nc4ccc(F)cc4)c3)nc3cncc(C4CC4)c23)CC1 [Example 662, (4-{5-Cyclopropyl-4-[4-(2-methoxy-ethyl]-piperazin-1-yl]-pyrido[3,4-d]pyrimidin-2-yl}-pyridin-2-yl)-(4-fluoro-phenyl)-amine]"
4,100 to 1000,"CS(=O)(=O)CCN1CCN(c2nc(-c3ccnc(Nc4ccccc4)c3)nc3cncc(C4CC4)c23)CC1 [Example 663, (4-{5-Cyclopropyl-4-[4-(2-methanesulfonyl-ethyl)-piperazin-1-yl]-pyrido[3,4-d]pyrimidin-2-yl}-pyridin-2-yl)-phenyl-amine]"
5,1000 to 10000,"CS(=O)(=O)CCN1CCN(c2nc(-c3ccnc(Nc4ccc(F)cc4)c3)nc3cncc(C4CC4)c23)CC1 [Example 664, (4-{5-Cyclopropyl-4-[4-(2-methanesulfonyl-ethyl)-piperazin-1-yl]-pyrido[3,4-d]pyrimidin-2-yl}-pyridin-2-yl)-(4-fluoro-phenyl)-amine]"
6,1000 to 10000,"CS(=O)(=O)CCN1CCN(c2nc(-c3ccnc(NC(=O)C4CC4)c3)nc3cncc(C4CC4)c23)CC1 [Example 665, Cyclopropane-carboxylic acid (4-{5-cyclopropyl-4-[4-(2-methanesulfonyl-ethyl)-piperazin-1-yl]-pyrido[3,4-d]pyrimidin-2-yl}-pyridin-2-yl)-amide]"
7,1000 to 10000,"COCCN1CCN(c2nc(-c3ccnc(NC(=O)C4CC4)c3)nc3cncc(C4CC4)c23)CC1 [Example 666, Cyclopropane-carboxylic acid (4-{5-cyclopropyl-4-[4-(2-methoxy-ethyl)-piperazin-1-yl]-pyrido[3,4-d]pyrimidin-2-yl}-pyridin-2-yl)-amide]"
8,< 100,"Fc1ccc(C2CC2)cc1Nc1cc(-c2nc(N3CCNCC3)c3c(C4CC4)cncc3n2)ccn1 [Example 667, (5-Cyclopropyl-2-fluoro-phenyl)-[4-(5-cyclopropyl-4-piperazin-1-yl-pyrido[3,4-d]pyrimidin-2-yl)-pyridin-2-yl]-amine]"
9,< 100,"O=C(NCCN1CCCC1)C1CCN(c2nc(-c3ccnc(Nc4c(F)cccc4F)c3)nc3cncc(C4CC4)c23)CC1 [Example 668, 1-{5-Cyclopropyl-2-[2-(2,6-difluoro-phenylamino)-pyridin-4-yl]-pyrido[3,4-d]pyrimidin-4-yl}-piperidine-4-carboxylic acid (2-pyrrolidin-1-yl-ethyl)-amide]"
10,1000 to 10000,"CNC(=O)C1CCN(c2nc(-c3ccnc(Nc4c(F)cccc4F)c3)nc3cncc(C4CC4)c23)CC1 [Example 669, 1-{5-Cyclopropyl-2-[2-(2,6-difluoro-phenylamino)-pyridin-4-yl]-pyrido[3,4-d]pyrimidin-4-yl}-piperidine-4-carboxylic acid methylamide]"
11,< 100,"Fc1ccnc(F)c1Nc1cc(-c2nc(N3CCNCC3)c3c(C4CC4)cncc3n2)ccn1 [Example 670, [4-(5-Cyclopropyl-4-piperazin-1-yl-pyrido[3,4-d]pyrimidin-2-yl)-pyridin-2-yl]-(2,4-difluoro-pyridin-3-yl)-amine]"
12,< 100,"Fc1ccc(Nc2cc(-c3nc(N4CCNCC4)c4c(C5CC5)cncc4n3)ccn2)c(F)n1 [Example 671, [4-(5-Cyclopropyl-4-piperazin-1-yl-pyrido[3,4-d]pyrimidin-2-yl)-pyridin-2-yl]-(2,6-difluoro-pyridin-3-yl)-amine]"
13,< 100,"Fc1ccc(Nc2cc(-c3nc(N4CCNCC4)c4c(C5CC5)cncc4n3)ccn2)cn1 [Example 672, [4-(5-Cyclopropyl-4-piperazin-1-yl-pyrido[3,4-d]pyrimidin-2-yl)-pyridin-2-yl]-(6-fluoro-pyridin-3-yl)-amine]"
14,< 100,"FC1(F)CCCC(Nc2cc(-c3nc(N4CCNCC4)c4c(C5CC5)cncc4n3)ccn2)C1 (centres unmarked) [Example 673, [4-(5-Cyclopropyl-4-piperazin-1-yl-pyrido[3,4-d]pyrimidin-2-yl)-pyridin-2-yl]-(3,3-difluoro-cyclohexyl)-amine]"
15,1000 to 10000,"CC(C)NC(=O)C1CCN(c2nc(-c3ccnc(NC4CCCCC4)c3)nc3cncc(C4CC4)c23)CC1 [Example 674, 1-[2-(2-Cyclohexylamino-pyridin-4-yl)-5-cyclopropyl-pyrido[3,4-d]pyrimidin-4-yl]-piperidine-4-carboxylicacid isopropylamide]"
16,1000 to 10000,"CC(C)NC(=O)C1CCN(c2nc(-c3ccnc(NC4CCCC4)c3)nc3cncc(C4CC4)c23)CC1 [Example 679, 1-[2-(2-Cyclopentylamino-pyridin-4-yl)-5-cyclopropyl-pyrido[3,4-d]pyrimidin-4-yl]-piperidine-4-carboxylicacid isopropylamide]"
17,< 100,Fc1cc(F)c(Nc2cc(-c3nc(N4CCNCC4)c4c(C5CC5)cncc4n3)ccn2)nc1F [Example 680]
18,< 100,"CN1CCN(c2cccc(Nc3cc(-c4nc(N5CCNCC5)c5c(C6CC6)cncc5n4)ccn3)c2)CC1 [Example 681, [4-(5-Cyclopropyl-4-piperazin-1-yl-pyrido[3,4-d]pyrimidin-2-yl)-pyridin-2-yl]-[3-(4-methyl-piperazin-1-yl)-phenyl]-amine]"
19,100 to 1000,"Fc1cc(Nc2cc(-c3nc(N4CCNCC4)c4c(C5CC5)cncc4n3)ccn2)c(F)c(F)n1 [Example 682, [4-(5-Cyclopropyl-4-piperazin-1-yl-pyrido[3,4-d]pyrimidin-2-yl)-pyridin-2-yl]-(2,3,6-trifluoro-pyridin-4-yl)-amine]"
20,1000 to 10000,"c1ccc(-c2ccc(Nc3cc(-c4nc(N5CCNCC5)c5c(C6CC6)cncc5n4)ccn3)cc2)cc1 [Example 683, Biphenyl-4-yl-[4-(5-cyclopropyl-4-piperazin-1-yl-pyrido[3,4-d]pyrimidin-2-yl)-pyridin-2-yl]-amine]"
21,100 to 1000,"O=C(O)c1ccc(Nc2cc(-c3nc(N4CCNCC4)c4c(C5CC5)cncc4n3)ccn2)cc1 [Example 684, 4-[4-(5-Cyclopropyl-4-piperazin-1-yl-pyrido[3,4-d]pyrimidin-2-yl)-pyridin-2-ylamino]-benzoic acid]"
22,100 to 1000,"O=C(NCCO)C1CCN(c2nc(-c3ccnc(Nc4c(F)cccc4F)c3)nc3cncc(C4CC4)c23)CC1 [Example 685, 1-{5-Cyclopropyl-2-[2-(2,6-difluoro-phenylamino)-pyridin-4-yl]-pyrido[3,4-d]pyrimidin-4-yl}-piperidine-4-carboxylic acid (2-hydroxy-ethyl)-amide]"
23,100 to 1000,"CN(C)C(=O)C1CCN(c2nc(-c3ccnc(Nc4c(F)cccc4F)c3)nc3cncc(C4CC4)c23)CC1 [Example 686, 1-{5-Cyclopropyl-2-[2-(2,6-difluoro-phenylamino)-pyridin-4-yl]-pyrido[3,4-d]pyrimidin-4-yl}-piperidine-4-carboxylic acid dimethylamide]"
